Test results reported in ChEMBL document CHEMBL4339202, “Benzothiophene derivatives as phosphodiesterase 10A (PDE10A) inhibitors: Hit-to-lead studies” (Bioorg Med Chem Lett, 2019).
Values belong to the compound of their own block, whether it stands above or below them.

What was measured:
[1] = biological target: cAMP and cAMP-inhibited cGMP 3',5'-cyclic phosphodiesterase 10A (Homo sapiens, UniProt Q9Y233); assay: Inhibition of human MOLT4 cell-derived PDE10A using [3H]cAMP as substrate measured after 2 hrs in presence of rolipram/milrinone by topcount method
Chain of cAMP and cAMP-inhibited cGMP 3',5'-cyclic phosphodiesterase 10A (Q9Y233 whole entry): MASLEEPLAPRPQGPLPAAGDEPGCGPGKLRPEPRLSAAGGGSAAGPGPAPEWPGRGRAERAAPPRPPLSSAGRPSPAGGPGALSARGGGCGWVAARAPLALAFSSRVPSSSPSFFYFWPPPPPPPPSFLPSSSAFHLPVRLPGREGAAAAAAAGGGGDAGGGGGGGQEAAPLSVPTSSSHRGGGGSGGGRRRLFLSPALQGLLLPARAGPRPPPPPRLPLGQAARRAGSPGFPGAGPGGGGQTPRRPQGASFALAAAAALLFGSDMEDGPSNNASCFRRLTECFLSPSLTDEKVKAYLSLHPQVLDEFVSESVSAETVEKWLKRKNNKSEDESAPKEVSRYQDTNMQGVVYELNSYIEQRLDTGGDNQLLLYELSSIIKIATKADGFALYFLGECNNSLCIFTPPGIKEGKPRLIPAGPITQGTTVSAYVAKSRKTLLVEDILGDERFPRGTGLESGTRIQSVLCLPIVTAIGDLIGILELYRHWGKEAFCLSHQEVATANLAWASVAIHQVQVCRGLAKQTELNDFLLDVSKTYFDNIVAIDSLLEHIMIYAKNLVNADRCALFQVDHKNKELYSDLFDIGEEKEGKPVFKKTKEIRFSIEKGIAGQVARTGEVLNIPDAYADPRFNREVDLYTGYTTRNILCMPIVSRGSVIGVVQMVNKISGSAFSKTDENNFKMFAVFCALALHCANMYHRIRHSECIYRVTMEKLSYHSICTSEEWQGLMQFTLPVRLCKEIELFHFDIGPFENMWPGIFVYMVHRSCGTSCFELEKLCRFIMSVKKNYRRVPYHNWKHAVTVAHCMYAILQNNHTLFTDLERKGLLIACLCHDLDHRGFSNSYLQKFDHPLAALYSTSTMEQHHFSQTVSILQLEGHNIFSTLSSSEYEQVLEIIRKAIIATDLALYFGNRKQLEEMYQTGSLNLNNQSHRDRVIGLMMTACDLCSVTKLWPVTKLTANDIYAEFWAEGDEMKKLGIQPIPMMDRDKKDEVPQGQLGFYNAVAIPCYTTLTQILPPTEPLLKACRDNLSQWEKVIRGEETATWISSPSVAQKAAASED

Mus musculus [2] = species on record: Mus musculus; assay: Inhibition of Balb/c mouse liver PDE1 at 30 ug/ml using [3H]cAMP as substrate measured after 2 hrs in presence of calmodulin by topcount method relative to control
Mus musculus [3] = species on record: Mus musculus; assay: Inhibition of Balb/c mouse liver PDE2 at 30 ug/ml using [3H]cAMP as substrate measured after 2 hrs in presence of cGMP by topcount method relative to control
Mus musculus [4] = species on record: Mus musculus; assay: Inhibition of Balb/c mouse liver PDE4 at 30 ug/ml using [3H]cAMP as substrate measured after 2 hrs by topcount method relative to control
Mus musculus [5] = species on record: Mus musculus; assay: Inhibition of Balb/c mouse lung PDE5 at 30 ug/ml using [3H]cGMP as substrate measured after 2 hrs by topcount method relative to control
Phosphodiesterase 7 [6] = biological target: T1, Phosphodiesterase 7 (Homo sapiens, UniProt Q13946+Q9NP56); assay: Inhibition of human MOLT4 cell-derived PDE7 at 30 ug/ml using [3H]cAMP as substrate measured after 2 hrs in presence of rolipram/milrinone by topcount method relative to control; format: protein assay
T1 sequence (Q13946 whole entry, looked up): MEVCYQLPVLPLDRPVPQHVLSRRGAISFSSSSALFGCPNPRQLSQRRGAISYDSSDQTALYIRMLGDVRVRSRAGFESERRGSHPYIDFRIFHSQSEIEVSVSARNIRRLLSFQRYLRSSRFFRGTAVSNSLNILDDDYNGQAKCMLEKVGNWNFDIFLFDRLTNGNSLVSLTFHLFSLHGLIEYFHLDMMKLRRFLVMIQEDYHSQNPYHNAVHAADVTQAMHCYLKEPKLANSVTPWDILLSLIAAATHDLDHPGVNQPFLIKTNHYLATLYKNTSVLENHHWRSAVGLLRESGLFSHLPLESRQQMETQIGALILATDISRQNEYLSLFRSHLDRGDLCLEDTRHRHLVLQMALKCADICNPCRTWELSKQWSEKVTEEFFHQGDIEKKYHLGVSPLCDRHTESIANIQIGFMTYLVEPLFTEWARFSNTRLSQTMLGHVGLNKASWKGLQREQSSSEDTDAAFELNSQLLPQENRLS
T1 sequence (Q9NP56 whole entry, looked up): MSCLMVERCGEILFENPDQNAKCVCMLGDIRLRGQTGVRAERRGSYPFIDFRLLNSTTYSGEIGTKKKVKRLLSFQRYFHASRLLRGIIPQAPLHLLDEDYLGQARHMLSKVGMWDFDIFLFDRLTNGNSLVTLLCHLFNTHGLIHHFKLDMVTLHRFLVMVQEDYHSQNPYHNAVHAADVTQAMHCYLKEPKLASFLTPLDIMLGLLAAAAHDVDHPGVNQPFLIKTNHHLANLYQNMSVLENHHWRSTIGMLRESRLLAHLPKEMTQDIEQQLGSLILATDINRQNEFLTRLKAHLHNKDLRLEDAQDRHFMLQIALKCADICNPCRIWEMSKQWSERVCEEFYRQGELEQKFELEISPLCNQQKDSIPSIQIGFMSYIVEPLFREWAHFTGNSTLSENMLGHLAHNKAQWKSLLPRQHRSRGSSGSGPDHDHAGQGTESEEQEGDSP

hERG (KCNH2) = hERG (KCNH2) (Homo sapiens, UniProt Q12809); assay: Inhibition of human ERG at 10 uM relative to control
Chain of hERG (KCNH2) (Q12809 whole entry): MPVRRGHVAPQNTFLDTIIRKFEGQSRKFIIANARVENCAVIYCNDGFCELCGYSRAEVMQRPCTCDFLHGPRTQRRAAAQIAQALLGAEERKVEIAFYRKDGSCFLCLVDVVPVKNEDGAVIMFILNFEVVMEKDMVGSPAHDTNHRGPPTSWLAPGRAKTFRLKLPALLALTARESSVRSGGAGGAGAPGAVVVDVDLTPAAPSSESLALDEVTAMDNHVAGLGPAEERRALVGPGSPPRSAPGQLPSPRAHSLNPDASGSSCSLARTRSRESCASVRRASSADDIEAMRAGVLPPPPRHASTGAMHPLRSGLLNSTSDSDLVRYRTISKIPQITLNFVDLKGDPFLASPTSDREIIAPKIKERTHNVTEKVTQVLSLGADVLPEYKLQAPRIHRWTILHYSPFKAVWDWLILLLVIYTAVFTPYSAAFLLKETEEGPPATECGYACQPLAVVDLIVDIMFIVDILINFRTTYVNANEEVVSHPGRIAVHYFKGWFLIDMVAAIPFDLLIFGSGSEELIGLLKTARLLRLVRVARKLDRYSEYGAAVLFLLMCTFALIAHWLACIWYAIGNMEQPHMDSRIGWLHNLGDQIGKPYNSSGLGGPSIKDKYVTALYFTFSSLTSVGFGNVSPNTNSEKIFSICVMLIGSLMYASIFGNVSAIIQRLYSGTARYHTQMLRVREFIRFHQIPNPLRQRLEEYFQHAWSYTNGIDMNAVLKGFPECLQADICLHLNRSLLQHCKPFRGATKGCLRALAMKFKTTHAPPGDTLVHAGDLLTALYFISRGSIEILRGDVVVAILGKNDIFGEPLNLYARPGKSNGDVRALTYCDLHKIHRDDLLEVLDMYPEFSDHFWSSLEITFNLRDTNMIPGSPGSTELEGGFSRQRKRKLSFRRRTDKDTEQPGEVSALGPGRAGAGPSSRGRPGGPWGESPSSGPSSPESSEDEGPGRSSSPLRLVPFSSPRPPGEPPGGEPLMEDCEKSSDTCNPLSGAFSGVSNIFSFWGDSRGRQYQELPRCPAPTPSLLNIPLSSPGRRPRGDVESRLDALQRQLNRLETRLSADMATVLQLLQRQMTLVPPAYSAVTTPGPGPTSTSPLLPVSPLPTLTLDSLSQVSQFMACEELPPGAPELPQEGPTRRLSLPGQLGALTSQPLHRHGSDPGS

CYP2D6 = CYP2D6 (Homo sapiens, UniProt P10635); assay: Inhibition of CYP2D6 (unknown origin) at 10 uM relative to control; format: ADME
Chain of CYP2D6 (P10635 whole entry): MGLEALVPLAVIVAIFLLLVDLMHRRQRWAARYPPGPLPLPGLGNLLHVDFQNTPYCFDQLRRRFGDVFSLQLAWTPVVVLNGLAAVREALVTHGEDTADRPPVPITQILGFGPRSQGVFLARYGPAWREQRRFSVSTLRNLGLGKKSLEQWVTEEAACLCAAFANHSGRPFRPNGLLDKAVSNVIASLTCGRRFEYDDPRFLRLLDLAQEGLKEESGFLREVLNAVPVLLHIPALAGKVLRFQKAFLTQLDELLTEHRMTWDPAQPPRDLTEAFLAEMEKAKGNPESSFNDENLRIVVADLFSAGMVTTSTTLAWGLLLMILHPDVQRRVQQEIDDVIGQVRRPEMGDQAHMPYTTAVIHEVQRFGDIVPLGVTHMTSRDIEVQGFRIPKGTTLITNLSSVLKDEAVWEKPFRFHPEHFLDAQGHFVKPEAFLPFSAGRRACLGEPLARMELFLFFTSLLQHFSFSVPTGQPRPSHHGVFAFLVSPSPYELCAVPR

CYP3A4 = CYP3A4 (Homo sapiens, UniProt P08684); assay: Inhibition of CYP3A4 (unknown origin) at 10 uM relative to control; format: ADME
Chain of CYP3A4 (P08684 whole entry): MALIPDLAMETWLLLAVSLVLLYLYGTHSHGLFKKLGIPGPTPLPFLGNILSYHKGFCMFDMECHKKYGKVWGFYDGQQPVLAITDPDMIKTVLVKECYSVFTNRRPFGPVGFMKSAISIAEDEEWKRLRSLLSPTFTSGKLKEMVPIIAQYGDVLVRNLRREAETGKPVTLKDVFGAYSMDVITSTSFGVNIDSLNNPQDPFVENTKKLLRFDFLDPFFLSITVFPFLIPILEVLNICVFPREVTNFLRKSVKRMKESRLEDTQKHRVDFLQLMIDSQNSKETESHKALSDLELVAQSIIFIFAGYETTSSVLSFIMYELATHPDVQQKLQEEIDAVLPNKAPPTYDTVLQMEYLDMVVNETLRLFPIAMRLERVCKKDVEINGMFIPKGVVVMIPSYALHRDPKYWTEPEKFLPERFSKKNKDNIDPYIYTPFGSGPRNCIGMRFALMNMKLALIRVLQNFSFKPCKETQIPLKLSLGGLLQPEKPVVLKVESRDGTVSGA

[7] = Inhibition of Balb/c mouse liver PDE1 using [3H]cAMP as substrate measured after 2 hrs in presence of calmodulin by topcount method
[8] = Inhibition of Balb/c mouse liver PDE2 using [3H]cAMP as substrate measured after 2 hrs in presence of cGMP by topcount method
[9] = Inhibition of Balb/c mouse liver PDE4 using [3H]cAMP as substrate measured after 2 hrs by topcount method
[10] = Inhibition of Balb/c mouse lung PDE5 using [3H]cGMP as substrate measured after 2 hrs by topcount method
Phosphodiesterase 7 [11] = biological target: T1, Phosphodiesterase 7; assay: Inhibition of human MOLT4 cell-derived PDE7 using [3H]cAMP as substrate measured after 2 hrs in presence of rolipram/milrinone by topcount method; format: protein assay
[12] = Selectivity ratio of IC50 for Balb/c mouse liver PDE1 to IC50 for human MOLT4 cell-derived PDE10A
[13] = Selectivity ratio of IC50 for Balb/c mouse liver PDE2 to IC50 for human MOLT4 cell-derived PDE10A
[14] = Selectivity ratio of IC50 for Balb/c mouse liver PDE4 to IC50 for human MOLT4 cell-derived PDE10A
[15] = Selectivity ratio of IC50 for Balb/c mouse lung PDE5 to IC50 for human MOLT4 cell-derived PDE10A
Homo sapiens = species on record: Homo sapiens; assay: Selectivity ratio of IC50 for human MOLT4 cell-derived PDE7 to IC50 for human MOLT4 cell-derived PDE10A

SMILES: O=C(Nc1ccc2ccccc2n1)c1cc2cccc(-c3ccncc3)c2s1
IC50 [1]: 0.047 µM

SMILES: O=C(Nc1cc2cccccc-2n1)/C(=C/c1ccccc1)c1ccccc1
inhibition (Mus musculus [2]): 25 to 50%
IC50 [1]: 0.51 µM
inhibition (Mus musculus [3]): 25 to 50%
inhibition (Mus musculus [4]): 25 to 50%
inhibition (Mus musculus [5]): 25 to 50%
inhibition (Phosphodiesterase 7 [6]): < 25%

SMILES: CNC(=O)c1cccc2c(C)c(C(=O)Nc3ccc4ccccc4n3)sc12
IC50 [1]: 0.023 µM

SMILES: CC(=O)c1ccc(C(C)=O)c2sc(C(=O)Nc3cc(C(C)(C)O)c4ccccc4n3)cc12
IC50 [1]: 0.013 µM

SMILES: CC(=O)c1cccc2c(C)c(C(=O)Nc3ccc4ccccc4n3)sc12
IC50 [1]: 0.0076 µM
inhibition at 10 µM (hERG (KCNH2)): 10%
inhibition at 10 µM (CYP2D6): 0%
inhibition at 10 µM (CYP3A4): 0%
IC50 [7]: > 10 µM
IC50 [8]: > 10 µM
IC50 [9]: > 10 µM
IC50 [10]: > 10 µM
IC50 (Phosphodiesterase 7 [11]): > 10 µM
Ratio IC50 [12]: > 1300
Ratio IC50 [13]: > 1300
Ratio IC50 [14]: > 1300
Ratio IC50 [15]: > 1300
Ratio IC50 (Homo sapiens): > 1300

SMILES: Cc1c(C(=O)Nc2ccc3ccccc3n2)sc2c(C(=O)N(C)C)cccc12
IC50 [1]: 0.044 µM

SMILES: Cc1c(C(=O)Nc2ccc3ccccc3n2)sc2c(C(N)=O)cccc12
IC50 [1]: 0.023 µM

SMILES: O=C(Nc1ccc2ccccc2n1)/C(=C/c1ccccc1)c1ccccc1
inhibition (Mus musculus [2]): < 25%
IC50 [1]: 0.44 µM
inhibition (Mus musculus [3]): < 25%
inhibition (Mus musculus [4]): < 25%
inhibition (Mus musculus [5]): < 25%
inhibition (Phosphodiesterase 7 [6]): < 25%

Further lines, with some results ahead:

IC50 [1]: 0.2 µM
SMILES: Cc1c(C(=O)Nc2ccc3ccccc3n2)sc2c(I)cccc12

IC50 [1]: 0.32 µM
SMILES: Cc1c(C(=O)Nc2ccc3ccccc3n2)sc2c(-c3ccoc3)cccc12

IC50 [1]: 0.0047 µM
inhibition at 10 µM (CYP2D6): 45%
inhibition at 10 µM (CYP3A4): 1%
SMILES: Cc1c(C(=O)Nc2ccc3ccccc3n2)sc2c(-c3ccncc3)cccc12
inhibition at 10 µM (hERG (KCNH2)): 36%

IC50 [1]: 0.062 µM
SMILES: Cc1c(C(=O)Nc2ccc3ccccc3n2)sc2c(-c3ccccn3)cccc12

IC50 [1]: 0.11 µM
SMILES: Cc1c(C(=O)Nc2ccc3ccccc3n2)sc2c(C#N)cccc12

IC50 [1]: 0.12 µM
SMILES: Cc1c(C(=O)Nc2ccc3ccccc3n2)sc2c(-c3cccnc3)cccc12

IC50 [1]: 0.0052 µM
SMILES: CCc1c(C(=O)Nc2ccc3ccccc3n2)sc2c(-c3ccncc3)cccc12
